According to a melting point compilation (Tetko et al.; mined from patent text by program, amines drawn as free bases though some values may be those of a salt):

Row | Structure (SMILES) | melting point [°C]
1 | CCc1nc(-c2cc(Cl)c(O)c(Cl)c2)no1 | 126
2 | CC(C)(C)OC(=O)N1CCC(S(C)(=O)=O)CC1 | 94 to 95
3 | CCCCCCc1c(C(C)C)nc(C(C)C)c(CO)c1-c1ccccc1 | 71 to 72
4 | CCOC(=O)c1cc(O)ccc1O | 81 to 82
5 | CN1Cc2c(I)ncn2-c2cccc(Br)c2C1=O | 203 to 204
6 | O=C1OC(=O)C2CC3=C(CC3)CC12 (configuration not stated) | 81 to 83
7 | CN1c2ccc([N+](=O)[O-])cc2CS1(=O)=O | 214 to 216
8 | CCN(CC)C(=S)c1cccc(F)c1[Si](C)(C)C | 71 to 73
9 | N#Cc1ccc(-c2ccc3nncn3n2)cc1 | 272 to 274
10 | Cc1nc(SCc2ccc(Cl)cc2)nc2c1CCCC2 | 48
11 | COc1ccc2c(c1)Oc1c(ccc(OC)c1C(OC)OC)C2(C)C | 60 to 62
12 | CC12CCC3C(CC=C4CCCCC43C)C1CC(F)C2=O (configuration not stated) | 228 to 230
13 | COC(=O)c1cc(OC)c(C(=O)O)cc1OC | 123 to 124
14 | CC(=O)Nc1nc2c(ncn2COCCOC(C)=O)c(=O)[nH]1 | 202 to 204
15 | CCn1ccc(C(=O)c2cc(C(C)(C)C)c(O)c(C(C)(C)C)c2)c1 | 73 to 75
16 | CCOc1ccc(C(=O)C#N)cc1 | 43
17 | COc1cc(/C=C/c2ccc(N(C)C)cc2)cc(OC)c1OC | 114 to 115
18 | CCc1nc2nccc(C)c2[nH]1 | 117 to 119

Next, values leading:

Row | melting point [°C] | Structure (SMILES)
19 | 300 | CC1=CC2=C(N3CN(O)C=C3N=N2)N(c2ccccc2Cl)C1
20 | 155 to 157 | O=C(NCc1cc(C(F)(F)F)cc(C(F)(F)F)c1)c1c(-c2ccccc2)c2cccnc2c(=O)n1CCCCO
21 | 90 to 92 | O=C(c1cccs1)C(O)c1ccc(F)cc1 (configuration not stated)
22 | 147 to 148 | Cc1nc(N2C[C@@H](C)N(Cc3cc(F)cc(F)c3)C2=O)sc1C(=O)NCc1ccccn1
23 | 250 to 252 | COc1cccc(-n2c(-c3sc(Nc4ccccc4)nc3-c3ccccc3)nc3ccccc3c2=O)c1
24 | 149 to 150 | CCc1cccc(C)c1NC(=O)CCBr
25 | 70 | COc1cccc(C#Cc2ccccc2)c1
26 | 75 to 77 | O=C(C#Cc1cccc(OCc2ccccc2)c1)c1ccccc1
27 | 54 to 74 | CC(C)(C)OC(=O)N[C@@H](Cc1ccccc1)C(=O)N1CCN(C(c2ccc(F)cc2)c2ccc(F)cc2)CC1
28 | 188 to 189 | COCCCNC(=O)c1cc2c(nc(C)n2C)c2c1CCC1(Cc3ccccc3C1)N2
29 | 108 to 119 | CCCn1c(=O)cc(OCC)n(Cc2ccc(-c3ccccc3-c3nnn[nH]3)cc2)c1=O
30 | 166 to 168 | O=C1NCCC(C(=O)c2ccc(Cc3ccc(F)cc3)o2)=C1O
31 | 227 to 230 | CC(=O)N(C)c1ccnc2c(NC(=O)c3c(Cl)cccc3Cl)cccc12
32 | 76 to 78 | Oc1cc(OCc2ccccc2)cc(OCc2ccccc2)c1C/C=C/c1ccccc1
33 | 148 | CCn1c2ccc(C(=O)CC(C)=O)cc2c2cc(C(=O)c3ccccc3C)ccc21
34 | 126 to 128 | CCCCc1nc2c(N)nc3ccccc3c2n1CCCCS(C)=O (configuration not stated)
35 | 152 to 154 | CCOC(=O)C1CSCCN1C(=O)Nc1ccc(Cl)cc1 (configuration not stated)
36 | 150 to 152 | O=C1Nc2ccccc2N(C(=O)CN2CCCC(CN3CCCCC3)C2)c2ccccc21 (configuration not stated)
37 | 68 | CN(CCNC(=O)NCCCOc1cccc(CN2CCCCC2)c1)CCN(Cc1ccc(F)cc1)c1ccccn1
38 | 109 to 110 | O=C(Cc1cccs1)Nc1cc(N2CC(c3ccccc3)OC2=O)ccn1 (configuration not stated)
39 | 152 | CCc1oc2ccc([N+](=O)[O-])cc2c1C(=O)c1ccc(O)cc1
40 | 103 to 107 | Nc1ccccc1Sc1ccncc1
41 | 129 to 131 | O=C(c1ccc(Cc2c(Cl)cc([N+](=O)[O-])cc2Cl)cc1)c1cnc(Cl)c(Cl)c1
42 | 260 to 264 | Cc1cc(C2=NN=C(C=NNC(N)=O)Cc3cc4c(cc32)OCO4)ccc1[N+](=O)[O-]
